Test results from US11702417B2, “Compounds for improving mRNA splicing” (The General Hospital Corporation, priority 2015, dated 2023).
Read-outs that look alike come from different tables or passages of the source.

System: FD (familial dysautomonia) IKBKAP minigene, exon 20 inclusion, in HEK293T cells
Test: Primary splicing assay (FD IKBKAP minigene, Firefly/Renilla luciferase reporter in HEK293T)
Assay type: cell-based, human
Conditions: for EC (maximum kinetin efficacy) / Emax: Homo sapiens, HEK-293T; for EC (maximum kinetin efficacy): HEK293T, read-out: ECk (compound concentration at which the maximum kinetin efficacy (200 μM) is reached); for ECk (RT-PCR): determined by RT-PCR, footnote a Firefly inhibitor, footnote b Renilla interference; for ECk, Firefly only: Renilla interference/Firefly only (footnote c)
[1] = Firefly/Renilla ratio, 24 hours of treatment
[2] = max efficacy in Primary Assay, Firefly/Renilla ratio, kinetin and DMSO as positive and negative controls, 24 hours of treatment, read-out: Emax (%)
[3] = max efficacy, value marked (RT-PCR), footnote a: Firefly inhibitor, read-out: Emax (%) (RT-PCR)
[4] = max efficacy, Firefly only, footnote c: Renilla interference/Firefly only, read-out: Emax (%) Firefly only

SMILES	EC (maximum kinetin efficacy) [1]	Emax [2]	also measured
CC(C)(C)OC(=O)N1CC(COc2nc3c(NCc4nccs4)nc(Cl)nc3[nH]2)C1 [(471)]	1.63 µM	149%	–
COCCn1ccc2c(NCc3ccco3)nc(Cl)nc21 [(94)]	–	–	Emax [3]: 180%; ECk (RT-PCR): 10 to 31.6 µM
Fc1ccccc1Nc1ncnc2[nH]cnc12 [(15)]	158 µM	–	–
COc1nc2c(NCc3nccs3)nc(C#N)nc2[nH]1 [(385)]	–	46%	–
OCCn1cc(F)c2c(NCc3ccco3)nc(Cl)nc21 [(111)]	–	–	Emax [4]: 191%; ECk, Firefly only: 9.3 µM⁻¹
Clc1nc(NCc2ccno2)c2cc[nH]c2n1 [(178)]	–	76%	–
CNc1nc2c(NCc3ccncc3)nc(Cl)nc2[nH]1 [(244)]	7.05 µM	150%	–
CC(=O)N1CC(Oc2nc3c(NCc4nccs4)nc(Cl)nc3[nH]2)C1 [(469)]	–	13.3%	–
NC(=O)c1nc2c(NCc3ccco3)nc(Cl)nc2[nH]1 [(238)]	64.8 µM	64%	–
CNc1nc2c(NCc3ccco3)nc(Cl)nc2[nH]1 [(113)]	5.17 µM	132%	–
Clc1nc(NCc2ccncc2)c2cn[nH]c2n1 [(217)]	7.07 µM	151%	–
Clc1cc(NCc2ccncc2)n2ncnc2n1 [(283)]	–	29%	–
Clc1nc(NCc2ccco2)c2[nH]ccc2n1 [(57)]	31.2 µM	–	–
c1csc(CNc2ncnc3[nH]cnc23)n1 [(16)]	–	67%	–
Clc1nc(NCc2ccco2)c2nc(Cc3ccncc3)[nH]c2n1 [(99)]	–	47%	–
Clc1nc(NCc2nccs2)c2nc(OCc3ccccn3)[nH]c2n1 [(500)]	3 µM	141%	–
Clc1nc(NCc2ccco2)c2cc(C3CC3)[nH]c2n1 [(156)]	15.8 µM	73%	–
Fc1ccccc1CNc1nc(Cl)nc2[nH]cnc12 [(352)]	–	25%	–
OCCn1cnc2c(NCc3ccco3)nc(Cl)nc21 [(73)]	17.1 µM	133%	–
Fc1cnccc1CNc1nc(Cl)nc2[nH]ccc12 [(226)]	1.8 µM	191%	–
Clc1nc(NCc2nccs2)c2nc(OCC3CCCC3)[nH]c2n1 [(332)]	0.78 µM	189%	–
c1coc(CNc2ccnc3[nH]cnc23)c1 [(48)]	72.8 µM	–	–

SMILES	EC (maximum kinetin efficacy) [1]	Emax [2]	also measured
COCCOc1nc2c(NCc3ccncc3)nc(Cl)nc2[nH]1 [(290)]	2.04 µM	238%	–
Fc1ccccc1CNc1nc(Cl)nc2[nH]ccc12 [(354)]	–	57.5%	–
FC(F)COc1nc2c(NCc3cscn3)nc(Cl)nc2[nH]1 [(395)]	1.8 µM	180%	–
CC(C)c1nc(NCc2ccco2)c2nc[nH]c2n1 [(67)]	–	13%	–
Fc1nc(NCc2nccs2)c2cc[nH]c2n1 [(379)]	–	95%	–
OCc1c[nH]c2nc(Cl)nc(NCc3ccco3)c12 [(109)]	–	–	Emax [4]: 128%; ECk, Firefly only: 12.16 µM⁻¹
OCCn1cc(Cl)c2c(NCc3ccco3)nc(Cl)nc21 [(211)]	7.73 µM	204%	–
CC(C)(C)OC(=O)N1CC(Oc2nc3c(NCc4ccncc4)nc(Cl)nc3[nH]2)C1 [(327)]	4.64 µM	145%	–
COc1nc2c(NC(C)c3nccs3)nc(Cl)nc2[nH]1 (stereo not drawn) [(370)]	–	33%	–
OCCn1cc(F)c2c(NCc3ccncn3)nc(Cl)nc21 [(138)]	12.8 µM	174%	–
COC(=O)COc1nc2c(NCc3nccs3)nc(Cl)nc2[nH]1 [(504)]	–	80%	–
Clc1cc(NCc2ccco2)n2ncnc2n1 [(284)]	–	27%	–
COc1nc2c(NCc3nccs3)nc(Cl)nc2n1CCO [(278)]	6.37 µM	141%	–
Cn1c(=O)[nH]c2nc(Cl)nc(NCc3nccs3)c21 [(470)]	–	76.8%	–
FC(F)(F)CCOc1nc2c(NCc3cscn3)nc(Cl)nc2[nH]1 [(499)]	1.67 µM	156%	–
CCCOc1nc2c(NCc3ccco3)nc(Cl)nc2[nH]1 [(292)]	0.24 µM	312%	–
Cc1[nH]c2nc(Cl)nc(NCc3ccco3)c2c1Br [(143)]	–	24%	–
CNCc1c[nH]c2nc(Cl)nc(NCc3ccco3)c12 [(177)]	–	60%	–
c1coc(CNc2ncnc3[nH]ccc23)c1 [(3)]	–	59%	–
OC1CN(c2nc3c(NCc4ccco4)nc(Cl)nc3[nH]2)C1 [(104)]	12 µM	246%	–
Clc1nc(NCc2ccncc2Cl)c2cc[nH]c2n1 [(228)]	15.7 µM	152%	–
COc1nc2c(NCc3ccncn3)nc(Cl)nc2n1CCO [(300)]	10 µM	84%	–

SMILES	EC (maximum kinetin efficacy) [1]	Emax [2]	also measured
Cc1c[nH]c2nc(Cl)nc(NCc3nccs3)c12 [(123)]	4.9 µM	92%	–
Clc1nc(NCc2ccco2)c2ncn(Cc3ccncc3)c2n1 [(72)]	–	39%	–
FC(F)COc1nc2c(NCc3ccco3)nc(Cl)nc2[nH]1 [(384)]	1.08 µM	152%	–
O=C1OCCN1CCOc1nc2c(NCc3nccs3)nc(Cl)nc2[nH]1 [(394)]	–	4.8%	–
CC(C)COc1nc2c(NCc3ccco3)nc(Cl)nc2[nH]1 [(477)]	2.28 µM	108%	–
Cc1[nH]c2nc(Cl)nc(NCc3ccncc3)c2c1F [(201)]	–	27%	–
Clc1nc(NCc2ccnc3ccccc23)c2nc[nH]c2n1 [(185)]	–	22%	–
Clc1nc(NCc2ccno2)c2nc[nH]c2n1 [(175)]	–	29%	–
O=C1CCCN1CCOc1nc2c(NCc3nccs3)nc(Cl)nc2[nH]1 [(402)]	–	21%	–
Clc1nc(NCc2nccs2)c2nc(OCc3ccccc3)[nH]c2n1 [(483)]	1.26 µM	138%	–
Clc1nc(NCc2ccncn2)c2cc[nH]c2n1 [(110)]	–	–	Emax [4]: 193%; ECk, Firefly only: 4.92 µM⁻¹
CCOc1nc2c(NCc3ccncc3)nc(Cl)nc2[nH]1 [(273)]	0.62 µM	254%	–
Clc1nc(NCc2ccco2)c2nc(OCC3CCCC3)[nH]c2n1 [(338)]	1.1 µM	222%	–
CSc1nc2c(NCc3ccncn3)nc(Cl)nc2[nH]1 [(303)]	1.51 µM	243%	–
FCCn1ccc2c(NCc3ccncc3)nc(Cl)nc21 [(194)]	4.49 µM	241%	–
CCCCOc1nc2c(NCc3ccncc3)nc(Cl)nc2[nH]1 [(305)]	0.43 µM	284%	–
N#Cc1nc(NCc2ccco2)c2nc[nH]c2n1 [(47)]	–	99%	–
Clc1nc(NCc2ccnnc2)c2cc[nH]c2n1 [(176)]	–	48%	–
Clc1nc(NCc2ccco2)c2cn[nH]c2n1 [(85)]	–	96%	–
Clc1nc(NCc2ccncn2)c2nc(OCC3CCC3)[nH]c2n1 [(326)]	0.07 µM	287%	–
Fc1cnccc1CNc1nc(Cl)nc2[nH]cnc12 [(227)]	23.3 µM	163%	–
OCCCOc1nc2c(NCc3nccs3)nc(Cl)nc2[nH]1 [(276)]	1.13 µM	188%	–

SMILES	EC (maximum kinetin efficacy) [1]	Emax [2]	also measured
Clc1nc(NCc2nccs2)c2c(Cl)c[nH]c2n1 [(208)]	107 µM	83%	–
Clc1nc(NCc2ccncn2)c2nc[nH]c2n1 [(129)]	5.6 µM	169%	–
Clc1nc(NCc2ccncn2)c2nc(OC3COC3)[nH]c2n1 [(267)]	2.4 µM	183%	–
Clc1nc(NCc2ccco2)c2nc(OC3CNC3)[nH]c2n1 [(333)]	–	51%	–
CC(C)(C)OCCOc1nc2c(NCc3nccs3)nc(Cl)nc2[nH]1 [(482)]	11.1 µM	99.1%	–
Clc1nc(NCc2cscn2)c2nc(OCC3CCO3)[nH]c2n1 (stereo not drawn) [(493)]	3.05 µM	168%	–
Cc1cc2c(NCc3ccncc3)nc(Cl)nc2[nH]1 [(119)]	11.2 µM	114%	–
Fc1c[nH]c2nc(Cl)nc(NCc3nccs3)c12 [(116)]	31.8 µM	112%	–
CNCc1nc2c(NCc3ccco3)nc(Cl)nc2[nH]1 [(235)]	–	80%	–
Clc1nc(NCc2ccco2)c2nc(N3CCOCC3)[nH]c2n1 [(102)]	–	52%	–
COc1nc2c(N(CCO)Cc3nccs3)nc(Cl)nc2[nH]1 [(386)]	–	69.2%	–
OCCn1ccc2c(NCc3ccco3)nc(Cl)nc21 [(77)]	–	–	Emax (max efficacy, value marked (RT-PCR), footnote b: Renilla interference, read-out: Emax (%) (RT-PCR)): 321%; ECk (RT-PCR): 1 to 10 µM
CC#CCOc1nc2c(NCc3ccco3)nc(Cl)nc2[nH]1 [(486)]	2.57 µM	150%	–
Clc1nc(NCc2ccco2)c2nc(OC[C@@H]3CCOC3)[nH]c2n1 [(472)]	1.16 µM	151%	–
N#Cc1c[nH]c2nc(Cl)nc(NCc3ccco3)c12 [(145)]	–	59%	–
Brc1nc(NCc2ccco2)c2nc[nH]c2n1 [(266)]	8.52 µM	106%	–
Clc1nc(NCc2nccs2)c2nc(OCC3CCC3)[nH]c2n1 [(324)]	0.16 µM	226%	–
O[C@H]1C=C[C@H](n2ccc3c(NCc4ccco4)nc(Cl)nc32)C1 [(132)]	–	–	Emax [3]: 67.7%
COc1cccc(Nc2ncnc3[nH]cnc23)c1 [(49)]	42.5 µM	–	–
Clc1nc(NCc2ccco2)c2nc(OCCC3CC3)[nH]c2n1 [(489)]	1.21 µM	131%	–
CC#CCOc1nc2c(NCc3nccs3)nc(Cl)nc2[nH]1 [(479)]	3.23 µM	144%	–
